# Source: PubChem BioAssay (NCI)
#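 Dose response: 5 concentrations. Exposure: 48 h. Format: 96-well plates. Endpoint: linear interpolation; highest concentration if not reached. TGI: total growth inhibition.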
# Key:
# Assay in all cases: NCI anticancer screen, dose series, 48 h
# EKVX NSCLC = tested on: EKVX NSCLC
# HCT-15 colon = tested on: HCT-15 colon
# RPMI-8226 leukemia = tested on: RPMI-8226 leukemia
# PC-3 prostate = tested on: PC-3 prostate
# ACHN renal = tested on: ACHN renal
# IGROV1 ovarian = tested on: IGROV1 ovarian
# 786-0 renal = tested on: 786-0 renal
# HS 578T breast = tested on: HS 578T breast
# U251 CNS = tested on: U251 CNS
# SK-MEL-5 melanoma = tested on: SK-MEL-5 melanoma
Structure (SMILES),TGI (EKVX NSCLC) [µM],TGI (HCT-15 colon) [µM],TGI (RPMI-8226 leukemia) [µM],TGI (PC-3 prostate) [µM],TGI (ACHN renal) [µM],TGI (IGROV1 ovarian) [µM],TGI (786-0 renal) [µM],TGI (HS 578T breast) [µM],TGI (U251 CNS) [µM],TGI (SK-MEL-5 melanoma) [µM]
CCOC(=O)C(NC(=O)CC)(Nc1ccc(S(=O)(=O)Nc2onc(C)c2C)cc1)C(F)(F)F (stereo not given),> 100,> 100,> 100,> 100,> 100,> 100,> 100,> 100,> 100,> 100
O=C(Sc1c(-c2ccccc2)c(=O)n(-c2ccccc2)c(=S)n1-c1ccccc1)c1cccs1,> 100,> 100,> 100,> 100,> 100,> 100,> 100,> 100,> 100,95.1
Cc1nnc2n(c1=O)CCN2C,> 100,> 100,> 100,> 100,> 100,> 100,> 100,> 100,> 100,> 100
